# PMC11394424, “The RAL Small G Proteins Are Clinically Relevant Targets in Triple Negative Breast Cancer” (Cancers, 2024)
# Target: T1, RALA (Homo sapiens, UniProt P11233)
# T1 construct: recombinant RALA, site-specifically biotinylated on the N-terminus
# T1 sequence (P11233 1-203): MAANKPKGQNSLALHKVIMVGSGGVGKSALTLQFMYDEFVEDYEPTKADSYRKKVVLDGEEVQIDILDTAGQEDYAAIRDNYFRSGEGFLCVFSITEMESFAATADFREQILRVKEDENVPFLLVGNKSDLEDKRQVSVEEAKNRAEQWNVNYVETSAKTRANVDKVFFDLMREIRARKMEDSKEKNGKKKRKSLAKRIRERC
# Test: SPR (Biacore 8K, steady-state affinity, biotinylated RALA on SA chip)
# Format: binding
substance,measurement,value
OSURALi,Kd,0.948 µM
